Our source for the IC50 values is patent US20230081426A1, “COMPOUNDS AND METHODS FOR KRAS MODULATION AND INDICATIONS THEREFOR” (Plexxikon Inc., priority 2020, published 2023).

The assay has as its target T1, G12D-mutant human KRAS (amino acid residues 1-188) (Homo sapiens, UniProt P01116, G12D).
T1 construct: G12D or G12C-mutant human KRAS (amino acid residues 1-188) with FLAG tag; made in house; host or cells: E. coli
Briefly: KRAS Binding Disruption Assay (AlphaScreen; biotinylated KRpep-2d analogue or RAF1-RBD), G12D. As to conditions: KRAS G12D; geometric mean; read-out: KRAS GMean IC50 (uM) MUTATION: G12D. The protocol: Compound binding disrupts the interaction of KRpep-2d or RAF1-RBD with KRAS, leading to a decrease in Alpha signal.
All assay components were prepared in 20 mM HEPES (pH 7.5), 100 mM NaCl, 5 mM MgCl2, 0.01% Tween-20, and 0.01% BSA. Biotinylated analogues of KRpep-2d were custom synthesized. The binding disruption assays were performed using 5-20 nM of mutant KRAS and 5-20 nM of either biotinylated KRpep-2d analogue or RAF1-RBD. 19 μL of KRAS protein and 4 μL of biotinylated KRpep-2d or RAF1-RBD were added to the wells of a 384-well plate containing 1 μL of various concentrations of test compound or DMSO vehicle. 16 wells containing KRAS, biotinylated KRpep-2d or RAF1-RBD, and 5% DMSO served as high controls. 16 wells containing KRAS only and 5% DMSO served as low controls. Binding reactions were incubated for 1 hour at 25° C., then Anti-Flag Acceptor and Streptavidin Donor Alpha beads were added at a final concentration of 10 μg/mL for an additional hour at room temperature. Alpha signal was read out on a Perkin Elmer Envision HTS instrument. The percentage inhibition at individual compound concentrations relative to high and low controls was calculated. The data were analyzed by using nonlinear regression to generate IC50 values.
On the technique in general: Bead proximity is the source of the signal in Alpha formats.

T1 sequence (P01116 1-188 isoform P01116-2 G12D): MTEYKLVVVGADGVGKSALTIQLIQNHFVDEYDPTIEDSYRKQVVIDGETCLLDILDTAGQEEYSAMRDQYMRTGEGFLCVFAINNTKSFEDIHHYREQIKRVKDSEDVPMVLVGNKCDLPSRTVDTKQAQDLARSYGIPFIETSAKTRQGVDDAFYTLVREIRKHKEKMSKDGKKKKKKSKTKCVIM

Consider `CCc1cc(F)cc2[nH]cc(-c3ccc4c(N5C[C@H]6CC[C@@H](C5)N6)nc(OCC56CCCN5CCC6)nc4c3F)c12` [P-0535, 4-((1R,5S)-3,8-diazabicyclo[3.2.1]octan-3-yl)-7-(4-ethyl-6-fluoro-1H-indol-3-yl)-8-fluoro-2-((tetrahydro-1H-pyrrolizin-7a(5H)-yl)methoxy)quinazoline], for which the half-inhibitory concentration (IC50) – broadly, the concentration at which inhibition is half-maximal – fell in the range of 0.0001 to 10 µM.

In the case of `Oc1cc(-c2ccc3c(N4C[C@H]5CC[C@@H](C4)N5)nc(OCC4(C(F)(F)F)CC4)nc3c2F)c2ccccc2c1` [P-0536, 4-(4-((1R,5S)-3,8-diazabicyclo[3.2.1]octan-3-yl)-8-fluoro-2-((1-(trifluoromethyl)cyclopropyl)methoxy)quinazolin-7-yl)naphthalen-2-ol], the concentration for half-maximal inhibition (IC50) fell in the range of 0.0001 to 10 µM.

Regarding `CC(C)(CNC(=O)CO)COc1nc(N2C[C@H]3CC[C@@H](C2)N3)c2ccc(-c3cc(O)cc4ccccc34)c(F)c2n1` [P-0537, N-(3-((4-((1R,5S)-3,8-diazabicyclo[3.2.1]octan-3-yl)-8-fluoro-7-(3-hydroxynaphthalen-1-yl)quinazolin-2-yl)oxy)-2,2-dimethylpropyl)-2-hydroxyacetamide], the IC50 was in the range of 0.0001 to 10 µM.

Consider `C=Cc1cccc2cccc(-c3ccc4c(N5C[C@H]6CC[C@@H](C5)N6)nc(OCC56CCCN5CCC6)nc4c3F)c12` [P-0538, 4-((1R,5S)-3,8-diazabicyclo[3.2.1]octan-3-yl)-8-fluoro-2-((tetrahydro-1H-pyrrolizin-7a(5H)-yl)methoxy)-7-(8-vinylnaphthalen-1-yl)quinazoline], for which the IC50 was in the range of 0.0001 to 10 µM.

For the molecule `O=[N+]([O-])c1cccc2cncc(-c3ccc4c(N5C[C@H]6CC[C@@H](C5)N6)nc(OCC56CCCN5CCC6)nc4c3F)c12` [P-0539, 4-((1R,5S)-3,8-diazabicyclo[3.2.1]octan-3-yl)-8-fluoro-7-(5-nitroisoquinolin-4-yl)-2-((tetrahydro-1H-pyrrolizin-7a(5H)-yl)methoxy)quinazoline], the concentration for half-maximal inhibition (IC50) lay within 0.0001 to 10 µM.

With `Nc1ccc(Cl)c(-c2c(Cl)cc3c(N4C[C@H]5CC[C@@H](C4)N5)nc(OCC45CCCN4CCC5)nc3c2F)c1` [P-0540, 3-(4-((1R,5S)-3,8-diazabicyclo[3.2.1]octan-3-yl)-6-chloro-8-fluoro-2-((tetrahydro-1H-pyrrolizin-7a(5H)-yl)methoxy)quinazolin-7-yl)-4-chloroaniline], the IC50 was 0.0001 to 10 µM.

In the case of `CC(C)(CO)COc1nc(N2C[C@H]3CC[C@@H](C2)N3)c2ccc(-c3cccc4cccc(Cl)c34)c(F)c2n1` [P-0541, 3-((4-((1R,5S)-3,8-diazabicyclo[3.2.1]octan-3-yl)-7-(8-chloronaphthalen-1-yl)-8-fluoroquinazolin-2-yl)oxy)-2,2-dimethylpropan-1-ol], the IC50 lay within 0.0001 to 10 µM.

For the molecule `CS(=O)(=O)NCCN1[C@@H]2CC[C@H]1CN(c1nc(OCC34CCCN3CCC4)nc3c(F)c(-c4cc(O)cc5ccccc45)ccc13)C2` [P-0542, N-(2-((1R,5S)-3-(8-fluoro-7-(3-hydroxynaphthalen-1-yl)-2-((tetrahydro-1H-pyrrolizin-7a(5H)-yl)methoxy)quinazolin-4-yl)-3,8-diazabicyclo[3.2.1]octan-8-yl)ethyl)methanesulfonamide], the half-inhibitory concentration (IC50) was 0.0001 to 10 µM.

For the molecule `NC(=O)NCCN1[C@@H]2CC[C@H]1CN(c1nc(OCC34CCCN3CCC4)nc3c(F)c(-c4cc(O)cc5ccccc45)ccc13)C2` [P-0543, 1-(2-((1R,5S)-3-(8-fluoro-7-(3-hydroxynaphthalen-1-yl)-2-((tetrahydro-1H-pyrrolizin-7a(5H)-yl)methoxy)quinazolin-4-yl)-3,8-diazabicyclo[3.2.1]octan-8-yl)ethyl)urea], the IC50 was 0.0001 to 10 µM.

In the case of `CC(=O)NCCN1[C@@H]2CC[C@H]1CN(c1nc(OCC34CCCN3CCC4)nc3c(F)c(-c4cc(O)cc5ccccc45)ccc13)C2` [P-0544, N-(2-((1R,5S)-3-(8-fluoro-7-(3-hydroxynaphthalen-1-yl)-2-((tetrahydro-1H-pyrrolizin-7a(5H)-yl)methoxy)quinazolin-4-yl)-3,8-diazabicyclo[3.2.1]octan-8-yl)ethyl)acetamide], the IC50 was in the range of 0.0001 to 10 µM.

For `NCCN1[C@@H]2CC[C@H]1CN(c1nc(OCC34CCCN3CCC4)nc3c(F)c(-c4cc(O)cc5ccccc45)ccc13)C2` [P-0545, 4-(4-((1R,5S)-8-(2-aminoethyl)-3,8-diazabicyclo[3.2.1]octan-3-yl)-8-fluoro-2-((tetrahydro-1H-pyrrolizin-7a(5H)-yl)methoxy)quinazolin-7-yl)naphthalen-2-ol], the 50% inhibitory concentration (IC50) was 0.0001 to 10 µM.

Regarding `NC1(CCO)CN(c2nc(N3C[C@H]4CC[C@@H](C3)N4)c3ccc(-c4cc(O)cc5ccccc45)c(F)c3n2)C1` [P-0546, 4-(2-(3-amino-3-(2-hydroxyethyl)azetidin-1-yl)-4-((1R,5S)-3,8-diazabicyclo[3.2.1]octan-3-yl)-8-fluoroquinazolin-7-yl)naphthalen-2-ol], the half-inhibitory concentration (IC50) lay in the range of 0.0001 to 10 µM.

`O=C1NC2(CCO1)CN(c1nc(N3C[C@H]4CC[C@@H](C3)N4)c3ccc(-c4cc(O)cc5ccccc45)c(F)c3n1)C2` [P-0547, 2-(4-((1R,5S)-3,8-diazabicyclo[3.2.1]octan-3-yl)-8-fluoro-7-(3-hydroxynaphthalen-1-yl)quinazolin-2-yl)-7-oxa-2,5-diazaspiro[3.5]nonan-6-one]: the 50% inhibitory concentration (IC50) was in the range of 0.0001 to 10 µM.

Take `Cc1ccc2[nH]nc(C)c2c1-c1ccc2c(N3C[C@H]4CC[C@@H](C3)N4)nc(OCC34CCCN3CCC4)nc2c1F` [P-0548, 4-((1R,5S)-3,8-diazabicyclo[3.2.1]octan-3-yl)-7-(3,5-dimethyl-1H-indazol-4-yl)-8-fluoro-2-((tetrahydro-1H-pyrrolizin-7a(5H)-yl)methoxy)quinazoline]: the half-maximal inhibitory concentration (IC50) fell in the range of 0.0001 to 10 µM.

As to `CCc1cccc2[nH]cc(-c3ncc4c(N5C[C@H]6CC[C@@H](C5)N6)nc(OCC56CCCN5CCC6)nc4c3F)c12` [P-0549, 4-((1R,5S)-3,8-diazabicyclo[3.2.1]octan-3-yl)-7-(4-ethyl-1H-indol-3-yl)-8-fluoro-2-((tetrahydro-1H-pyrrolizin-7a(5H)-yl)methoxy)pyrido[4,3-d]pyrimidine], the IC50 was 0.0001 to 10 µM.

Regarding `NC(=O)CN1[C@@H]2CC[C@H]1CN(c1nc(OCC34CCCN3CCC4)nc3c(F)c(-c4cc(O)cc5ccccc45)ccc13)C2` [P-0550, 2-((1R,5S)-3-(8-fluoro-7-(3-hydroxynaphthalen-1-yl)-2-((tetrahydro-1H-pyrrolizin-7a(5H)-yl)methoxy)quinazolin-4-yl)-3,8-diazabicyclo[3.2.1]octan-8-yl)acetamide], the IC50 lay in the range of 0.0001 to 10 µM.

Take `CC(C)(C)OC(=O)NCCN1[C@@H]2CC[C@H]1CN(c1nc(OCC34CCCN3CCC4)nc3c(F)c(-c4cc(O)cc5ccccc45)ccc13)C2` [P-0551, tert-butyl (2-((1R,5S)-3-(8-fluoro-7-(3-hydroxynaphthalen-1-yl)-2-((tetrahydro-1H-pyrrolizin-7a(5H)-yl)methoxy)quinazolin-4-yl)-3,8-diazabicyclo[3.2.1]octan-8-yl)ethyl)carbamate]: the IC50 was 0.0001 to 10 µM.

In the case of `O=C(O)CN1[C@@H]2CC[C@H]1CN(c1nc(OCC34CCCN3CCC4)nc3c(F)c(-c4cc(O)cc5ccccc45)ccc13)C2` [P-0552, 2-((1R,5S)-3-(8-fluoro-7-(3-hydroxynaphthalen-1-yl)-2-((tetrahydro-1H-pyrrolizin-7a(5H)-yl)methoxy)quinazolin-4-yl)-3,8-diazabicyclo[3.2.1]octan-8-yl)acetic acid], the concentration for half-maximal inhibition (IC50) fell in the range of 0.0001 to 10 µM.

In the case of `CN1CC(F)(F)C[C@H]1COc1nc(N2C[C@H]3CC[C@@H](C2)N3)c2ccc(-c3cc(O)cc4ccccc34)c(F)c2n1` [P-0553, 4-(4-((1R,5S)-3,8-diazabicyclo[3.2.1]octan-3-yl)-2-(((S)-4,4-difluoro-1-methylpyrrolidin-2-yl)methoxy)-8-fluoroquinazolin-7-yl)naphthalen-2-ol], the IC50 is 0.0001 to 10 µM.

As for `CN1C[C@@H](F)C[C@H]1COc1nc(N2C[C@H]3CC[C@@H](C2)N3)c2ccc(-c3cc(O)cc4ccccc34)c(F)c2n1` [P-0554, 4-(4-((1R,5S)-3,8-diazabicyclo[3.2.1]octan-3-yl)-8-fluoro-2-(((2S,4S)-4-fluoro-1-methylpyrrolidin-2-yl)methoxy)quinazolin-7-yl)naphthalen-2-ol], the half-maximal inhibitory concentration (IC50) is 0.0001 to 10 µM.

Take `Oc1cc(-c2ccc3c(N4C[C@H]5CC[C@@H](C4)N5)nc(N4CC5(CCC5O)C4)nc3c2F)c2ccccc2c1` (stereo partly drawn) [P-0555, 2-(4-((1R,5S)-3,8-diazabicyclo[3.2.1]octan-3-yl)-8-fluoro-7-(3-hydroxynaphthalen-1-yl)quinazolin-2-yl)-2-azaspiro[3.3]heptan-5-ol]: the IC50 lay within 0.0001 to 10 µM.

On to `Oc1cc(-c2ccc3c(N4C[C@H]5CC[C@@H](C4)N5)nc(NCC4CCCC4O)nc3c2F)c2ccccc2c1` (stereo partly drawn) [P-0556, 4-(4-((1R,5S)-3,8-diazabicyclo[3.2.1]octan-3-yl)-8-fluoro-2-(((2-hydroxycyclopentyl)methyl)amino)quinazolin-7-yl)naphthalen-2-ol], for which the half-maximal inhibitory concentration (IC50) lay in the range of 0.0001 to 10 µM.

Regarding `CNCC1CN(c2nc(N3C[C@H]4CC[C@@H](C3)N4)c3ccc(-c4cc(O)cc5ccccc45)c(F)c3n2)C1` [P-0557, 4-(4-((1R,5S)-3,8-diazabicyclo[3.2.1]octan-3-yl)-8-fluoro-2-(3-((methylamino)methyl)azetidin-1-yl)quinazolin-7-yl)naphthalen-2-ol], the concentration for half-maximal inhibition (IC50) was in the range of 0.0001 to 10 µM.
